As a reminder, the IC50 is the point on the concentration scale where inhibition reaches its midpoint. Read a high IC50 as lower potency.

This note sets out measurements from patent US20230399339A1, “HETEROCYCLIC AMIDE DERIVATIVE, PREPARATION METHOD THEREFOR, AND APPLICATION THEREOF” (SHENZHEN ZHONGGE BIOLOGICAL TECHNOLOGY CO., LTD., priority 2021, published 2023).

This assay concerns the target T1, EP4 receptor (Homo sapiens, UniProt P35408).
T1 construct: expressed in transfected cells; host or cells: Flpin-CHO-EP4 cells (Flp-In CHO host, Chinese hamster ovary)
The assay is described as follows: Antagonist activity against EP4 receptor by cAMP assay. Type of assay: cell-based. The conditions noted are these: Flpin-CHO-EP4 cells, PGE2-stimulated cAMP; initial concentration 50 nM, dilution times 4. Here is the method:
(a) Antagonist Activity Against EP4 Receptor by cAMP Assay:
Experiment Methods: Inoculating Flpin-CHO-EP4 cells (8000 cells/well) into a 384-well plate (6007680-50, PE) with an assay buffer (1×HBSS+20 mM HEPES+0.1% BSA+500 μM IBMX). Preparing 8× compound working solution with the assay buffer. Adding 2.5 μL of the 8× compound working solution to each well in the cell plate according to the plate map and incubating at 37° C. for 10 min. Preparing 8×PGE2 (400 nM) with the assay buffer. Adding 2.5 μL of the 8×PGE2 per well in the cell plate and incubating at 37° C. for 30 min. Diluting the Eu-cAMP tracer (1/50) with a lysis buffer and adding 10 μL per well in the test plate. Diluting Ulight-anti-cAMP (1/150) with a lysis buffer and adding 10 μL per well in the test plate. Incubating at room temperature for 1 h. Reading wavelength signal values at 665 nm and 615 nm on the Envision 2105 plate reader.
(In general: Cyclic AMP is a second messenger, typically raised through Gs and lowered through Gi signalling.)

T1 sequence (P35408 whole entry): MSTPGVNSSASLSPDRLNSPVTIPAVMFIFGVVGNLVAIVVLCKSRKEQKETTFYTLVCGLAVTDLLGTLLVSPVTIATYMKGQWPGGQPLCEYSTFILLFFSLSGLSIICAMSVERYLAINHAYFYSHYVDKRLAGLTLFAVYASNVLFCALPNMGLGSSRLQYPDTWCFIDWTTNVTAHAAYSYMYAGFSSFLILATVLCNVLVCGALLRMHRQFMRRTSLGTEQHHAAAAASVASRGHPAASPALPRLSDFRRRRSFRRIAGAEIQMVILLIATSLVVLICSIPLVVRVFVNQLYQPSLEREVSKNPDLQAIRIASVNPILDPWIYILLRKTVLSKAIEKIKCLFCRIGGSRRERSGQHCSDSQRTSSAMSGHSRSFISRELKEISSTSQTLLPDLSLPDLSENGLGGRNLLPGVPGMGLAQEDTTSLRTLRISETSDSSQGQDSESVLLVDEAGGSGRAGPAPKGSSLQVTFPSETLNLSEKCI

`Cc1sc2ccn(Cc3ccc(C(F)(F)F)cc3)c2c1C(=O)NC1(c2ccc(C(=O)O)cc2)CC1` [Control compound] came in with an IC50 of 351 pM.

With `Cc1sc2ccn(Cc3ccc(S(F)(F)(F)(F)F)cc3)c2c1C(=O)NC1(c2ccc(C(=O)O)cc2)CC1` [Example 1, 4-(1-{[2-methyl-4-(4-(pentafluorothio)benzyl)-4H-thieno[3,2-b]pyrrole-3-carbonyl]amino}-cyclopropyl)carboxylic acid], the IC50 came to 122 pM.
